Results reported in patent US20250121076A1, “POLYPEPTIDE DRUG CONJUGATE HAVING NOVEL STRUCTURE AND APPLICATION THEREOF” (MEDSHINE DISCOVERY INC., priority 2021, published 2025).
Counter-ions that a name gives are not always drawn. Starred links: 1 amine or outer side, 2 acyl side, 3 side chain; linkers in the order of their positions; H or OH if unused. Positions of bridges follow the written chain, without caps; N, C: chain ends. Non-standard residues stand in square brackets, D forms with d. Residues, ends and D or L forms follow the SMILES beside them. Chains are numbered I, II in the order given. *: point of attachment. TATA = O=C(CC[*:1])N1CN(C(=O)CC[*:2])CN(C(=O)CC[*:3])C1; Dolaproine = CO[C@@H]([C@@H]1CCCN1)[C@@H](C)C(=O)O; Dil = CC[C@H](C)[C@H](NC)[C@@H](CC(=O)O)OC; X2 = O=C(CCCC(=O)[*:2])NCCC(=O)[*:1]; PABC = O=C(OCc1ccc(N[*:1])cc1)[*:2]; X1 = C[C@@H](N*)[C@@H](O)c1ccccc1; Hyp = O=C(O)[C@@H]1C[C@@H](O)CN1; hArg = N=C(N)NCCCC[C@H](N)C(=O)O; Cit = NC(=O)NCCC[C@H](N)C(=O)O; Pen = CC(C)(S)[C@H](N)C(=O)O; NMeV = CN[C@H](C(=O)O)C(C)C; hCys = N[C@@H](CCS)C(=O)O; Sar = CNCC(=O)O

Biological target: T1, Human EphA2 (Homo sapiens, UniProt P29317)
T1 construct: purchased Sino Biological 13926-H08HD
T1 sequence (P29317 24-534 limits assumed): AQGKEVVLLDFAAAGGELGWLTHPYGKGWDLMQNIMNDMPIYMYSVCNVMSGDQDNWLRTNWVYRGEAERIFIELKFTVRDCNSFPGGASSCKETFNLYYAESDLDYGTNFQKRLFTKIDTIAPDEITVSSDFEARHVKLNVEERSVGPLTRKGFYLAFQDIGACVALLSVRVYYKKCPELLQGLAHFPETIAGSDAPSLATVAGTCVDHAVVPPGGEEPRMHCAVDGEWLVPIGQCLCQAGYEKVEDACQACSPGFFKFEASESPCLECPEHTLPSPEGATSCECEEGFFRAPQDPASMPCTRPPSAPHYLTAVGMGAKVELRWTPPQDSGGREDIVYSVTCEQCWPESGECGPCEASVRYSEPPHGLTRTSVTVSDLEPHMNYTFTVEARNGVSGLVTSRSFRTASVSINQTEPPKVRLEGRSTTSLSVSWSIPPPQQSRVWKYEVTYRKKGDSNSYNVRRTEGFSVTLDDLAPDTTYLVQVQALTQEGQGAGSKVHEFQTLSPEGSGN
Assay: Binding capacity test to EphA2 protein (SPR, Biacore 8K)
Procedure: To detect the affinity of the compound to be tested to the target protein EphA2 using the SPR method.
• Biacore 8K (GE Healthcare). • 96-well Plate (Cat #650101, greiner bio-one) • CM5 chip (Cat #BR-1005-30, GE Healthcare) • Amine Coupling Kit (Cat #BR-1000-50, GE Healthcare) EDC NHS 1 M ethanolamine. • 10 mM sodium acetate pH 4.5 (Cat #BR-1003-50, GE Healthcare) • DMSO (Cat #D4540, Sigma) • P20 (Cat #BR-1000-54, GE Healthcare). • PBS (Cat #BR-1006-72, GE Healthcare). • EphA2 (Cat #13926-H08HD, Sino Biological)
In this experiment, the amino coupling method was used. The target protein EphA2 was directly immobilized on the CM5 chip using Biacore 8K. The compound to be tested as an analyte was then diluted to a required concentration gradient with a buffer (10 mM PBS, pH 7.4, 137 mM NaCl, 2.7 mM KCl, 5% DMSO, and 0.05% P20) for multi-cycle kinetic detection, in which each cycle is formed by 180 seconds of sample injection and 180 seconds of dissociation, and then the next cycle was performed, to obtain kinetic analysis data on the affinity of the target protein EphA2 to the compound to be tested. The final data were subjected to Kinetics fitting analysis based on a 1:1 model using Biacore Insight Evaluation Software (V 2.0.15.12933).
1) Preparation of the buffer: 10 mM PBS, pH 7.4, 137 mM NaCl, 2.7 mM KCl, 5% DMSO, and 0.05% P20.
2) Activation of the CM5 chip: The CM5 chip was activated with 400 mM EDC and 100 mM NHS at a flow rate of 10 μL/min for 420 seconds.
3) Coupling of the target protein: The target protein was diluted to 10 μg/mL with 10 mM sodium acetate (pH 4.5) and coupled at a flow rate of 10 μL/min for 284 s. The 1 #, 2 #, and 3 #channels on the chip were used in the experiment, and the coupling results were 1639.9RU, 1747.8RU, and 1702.2RU, respectively.
4) Blocking of the CM5 chip: The CM5 chip was blocked with 1 M ethanolamine at a flow rate of 10 μL/min for 420 seconds.
5) Analyte concentration: The compound to be tested was diluted with the buffer. The compound to be tested was diluted from 100 nM to 0.78 nM in a 2-fold gradient.
6) Sample injection analysis: Each concentration of the working solution of the compound to be tested corresponded to one cycle, with a flow rate of 30 μL/min for binding for 180 seconds and dissociating for 180 seconds. The last cycle was a 5% DMSO solvent correction cycle. 7) All results were subjected to kinetics fitting analysis based on a 1:1 model.
The experimental data of five effective concentrations of the compounds of the present invention were selected for Kinetics fitting analysis based on a 1:1 model using Biacore Insight Evaluation Software (V 2.0.15.12933).

| SMILES | Kd |
| --- | --- |
| CC[C@H](C)[C@@H]([C@@H](CC(=O)N1CCC[C@H]1[C@H](OC)[C@@H](C)C(=O)N[C@H](C)[C@@H](O)c1ccccc1)OC)N(C)C(=O)[C@@H](NC(=O)[C@H](C(C)C)N(C)C(=O)OCc1ccc(NC(=O)[C@H](CCCNC(N)=O)NC(=O)[C@@H](NC(=O)CCCC(=O)NCCC(=O)N(C)CC(=O)N(C)CC(=O)N(C)CC(=O)N(C)CC(=O)N(C)CC(=O)N(C)CC(=O)N(C)CC(=O)N(C)CC(=O)N(C)CC(=O)N(C)CC(=O)N[C@H]2CCCCNC(=O)C[C@@H](C(=O)N[C@H]3CCSCCC(=O)N4CN5CN(C4)C(=O)CCSC[C@H](NC(=O)[C@H](CC(C)C)NC(=O)[C@@H]4CCCN4C(=O)[C@H](CC(N)=O)NC(=O)[C@H](C(C)C)NC(=O)[C@H](CC(C)C)NC(=O)[C@@H]4C[C@@H](O)CN4C3=O)C(=O)N[C@@H](CC(C)C)C(=O)N[C@@H](Cc3c[nH]cn3)C(=O)N3CCC[C@H]3C(=O)N[C@H](CC(=O)O)C(=O)N[C@@H](Cc3c[nH]c4ccccc34)C(=O)N[C@@H](CCCCNC(=N)N)C(=O)N[C@H](C(N)=O)CSCCC5=O)NC(=O)[C@H](CCCCNC(=N)N)NC2=O)C(C)C)cc1)C(C)C [Acetate salt of PDC_6] (I: [Sar][Sar][Sar][Sar][Sar][Sar][Sar][Sar][Sar][Sar]K[hArg]D[hCys][Hyp]LVNPLCLHP[dD]W[hArg]C-NH2 / II: V[Cit][PABC][NMeV]V[Dil][Dolaproine]-X1; lactam I:11-I:13; linker I:14-I:21-I:28 via TATA; linker I:N-II:N via X2) | 5.67 nM |
| CC[C@H](C)[C@@H]([C@@H](CC(=O)N1CCC[C@H]1[C@H](OC)[C@@H](C)C(=O)N[C@H](C)[C@@H](O)c1ccccc1)OC)N(C)C(=O)[C@@H](NC(=O)[C@H](C(C)C)N(C)C(=O)OCc1ccc(NC(=O)[C@H](CCCNC(N)=O)NC(=O)[C@@H](NC(=O)CCCC(=O)NCCC(=O)N(C)CC(=O)N(C)CC(=O)N(C)CC(=O)N(C)CC(=O)N(C)CC(=O)N(C)CC(=O)N(C)CC(=O)N(C)CC(=O)N(C)CC(=O)N(C)CC(=O)N[C@H]2CCCCNC(=O)C[C@@H](C(=O)N[C@@H]3C(=O)N4C[C@H](O)C[C@H]4C(=O)N[C@@H](CC(C)C)C(=O)N[C@@H](C(C)C)C(=O)N[C@@H](CC(N)=O)C(=O)N4CCC[C@H]4C(=O)N[C@@H](CC(C)C)C(=O)N[C@H]4CSCCC(=O)N5CN(CN(C5)C(=O)CCSC3(C)C)C(=O)CCSC[C@@H](C(N)=O)NC(=O)[C@H](CCCCNC(=N)N)NC(=O)[C@H](Cc3c[nH]c5ccccc35)NC(=O)[C@@H](CC(=O)O)NC(=O)[C@@H]3CCCN3C(=O)[C@H](Cc3c[nH]cn3)NC(=O)[C@H](CC(C)C)NC4=O)NC(=O)[C@H](CCCCNC(=N)N)NC2=O)C(C)C)cc1)C(C)C [Acetate salt of PDC_7] (I: [Sar][Sar][Sar][Sar][Sar][Sar][Sar][Sar][Sar][Sar]K[hArg]D[Pen][Hyp]LVNPLCLHP[dD]W[hArg]C-NH2 / II: V[Cit][PABC][NMeV]V[Dil][Dolaproine]-X1; lactam I:11-I:13; linker I:14-I:21-I:28 via TATA; linker I:N-II:N via X2) | 8.39 nM |
